# Measured values as given in the supplement of paper PMC10307832.
# How the values were obtained:
# Test in all cases: relative viability (nuclei count vs DMSO), 5 days (fraction); higher = more cells survive
# AT9283 + Crizotinib = compound: O=C(Nc1c[nH]nc1-c1nc2ccc(CN3CCOCC3)cc2[nH]1)NC1CC1 [AT9283] + C[C@@H](Oc1cc(-c2cnn(C3CCNCC3)c2)cnc1N)c1c(Cl)ccc(F)c1Cl [Crizotinib] (partner 1 µM)
# Method in brief: (§1)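 Relative viability equals treated-well nuclei counts divided by vehicle-well nuclei counts. Counts came from 4× images of lung cancer cell lines grown in 1536-well plates for 5 days after pin-tool dosing on the day after seeding. Dosing used one drug alone or a fixed anchor-drug dose plus five library-drug doses (not always all listed) in √10 steps, and values are medians of duplicate plates.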
# Erlotinib + OSI-027 = compound: C#Cc1cccc(Nc2ncnc3cc(OCCOC)c(OCCOC)cc23)c1 [Erlotinib] + COc1cccc2cc(-c3nc([C@H]4CC[C@H](C(=O)O)CC4)n4ncnc(N)c34)[nH]c12 [OSI-027] (partner 0.5 µM)
# Method in brief: as §1
# AT9283 + Decitabine = compound: O=C(Nc1c[nH]nc1-c1nc2ccc(CN3CCOCC3)cc2[nH]1)NC1CC1 [AT9283] + Nc1ncn([C@H]2C[C@H](O)[C@@H](CO)O2)c(=O)n1 [Decitabine] (partner 2 µM)
# Method in brief: as §1
# AT9283 + AZD7762 = compound: O=C(Nc1c[nH]nc1-c1nc2ccc(CN3CCOCC3)cc2[nH]1)NC1CC1 [AT9283] + NC(=O)Nc1cc(-c2cccc(F)c2)sc1C(=O)N[C@H]1CCCNC1 [AZD7762] (partner 0.2 µM)
# Method in brief: as §1
# Erlotinib + Navitoclax = compound: C#Cc1cccc(Nc2ncnc3cc(OCCOC)c(OCCOC)cc23)c1 [Erlotinib] + CC1(C)CCC(c2ccc(Cl)cc2)=C(CN2CCN(c3ccc(C(=O)NS(=O)(=O)c4ccc(N[C@H](CCN5CCOCC5)CSc5ccccc5)c(S(=O)(=O)C(F)(F)F)c4)cc3)CC2)C1 [Navitoclax] (partner 0.5 µM)
# Method in brief: as §1
Cell Line,relative viability (AT9283 + Crizotinib; first compound 0.003 µM),relative viability (AT9283 + Crizotinib; first compound 0.03 µM),relative viability (AT9283 + Crizotinib; first compound 0.09487 µM),relative viability (AT9283 + Crizotinib; first compound 0.3 µM),relative viability (Erlotinib + OSI-027; first compound 0.02 µM),relative viability (Erlotinib + OSI-027; first compound 0.2 µM),relative viability (Erlotinib + OSI-027; first compound 0.6325 µM),relative viability (Erlotinib + OSI-027; first compound 2 µM),relative viability (AT9283 + Decitabine; first compound 0.003 µM),relative viability (AT9283 + Decitabine; first compound 0.03 µM),relative viability (AT9283 + Decitabine; first compound 0.09487 µM),relative viability (AT9283 + Decitabine; first compound 0.3 µM),relative viability (AT9283 + AZD7762; first compound 0.003 µM),relative viability (AT9283 + AZD7762; first compound 0.03 µM),relative viability (AT9283 + AZD7762; first compound 0.09487 µM),relative viability (AT9283 + AZD7762; first compound 0.3 µM),relative viability (Erlotinib + Navitoclax; first compound 0.02 µM),relative viability (Erlotinib + Navitoclax; first compound 0.2 µM),relative viability (Erlotinib + Navitoclax; first compound 0.6325 µM),relative viability (Erlotinib + Navitoclax; first compound 2 µM)
LU99A,0.492,0.28,0.185,0.168,0.295,0.303,0.284,0.259,0.868,0.404,0.195,0.226,0.457,0.137,0.139,0.148,0.937,0.784,0.725,0.746
LCLC-97TM1,0.273,0.157,0.128,0.121,0.697,0.553,0.504,0.489,0.199,0.175,0.104,0.089,0.305,0.102,0.0858,0.0762,0.39,–,0.464,0.391
NCI-H1666,1.08,0.777,0.377,0.311,0.83,0.741,0.624,0.565,0.6,0.589,0.669,0.534,0.817,0.685,0.733,0.491,0.999,0.817,0.407,0.347
NCI-H2347,0.717,0.78,0.446,0.363,0.345,0.444,0.415,0.272,0.624,0.61,0.471,0.372,0.781,0.676,0.324,0.341,1.07,0.833,0.837,0.796
NCI-H441,0.614,0.635,0.35,0.234,0.603,–,0.535,0.355,0.245,0.281,0.202,0.217,1.06,1.1,0.894,0.633,1.03,0.805,0.555,0.302
HCC-78,0.328,0.272,0.213,0.189,0.333,0.359,0.379,0.281,0.548,0.626,0.428,0.322,0.593,0.44,0.353,0.234,0.731,0.503,0.744,0.621
EPLC-272H,0.951,0.856,0.431,0.14,0.342,0.304,0.26,0.196,0.379,0.395,0.185,0.161,0.139,0.23,0.104,0.144,1.04,1.05,1.1,0.589
NCI-H647,1.01,0.357,0.201,0.121,0.594,0.606,–,0.449,0.427,0.401,0.205,0.127,0.524,0.13,0.0611,0.0591,1.42,0.955,1.5,0.991
NCI-H23,0.458,0.326,0.299,0.189,0.769,0.519,0.509,0.407,0.26,0.293,0.228,0.246,0.265,0.295,0.179,0.128,0.894,0.88,1.16,0.596
NCI-H727,0.813,0.461,0.27,0.323,0.768,0.584,0.461,0.52,0.697,0.642,0.754,0.517,0.684,0.574,0.37,0.383,0.447,0.393,0.384,0.347
EKVX,0.878,0.663,0.371,0.216,0.679,0.506,0.34,0.187,0.38,0.246,0.234,0.215,0.647,0.56,0.584,0.289,0.939,0.693,0.289,0.184
NCI-H2087,0.795,0.554,0.401,0.326,0.615,–,0.533,0.384,0.238,0.214,0.182,0.0988,1.35,0.686,0.348,0.244,1.14,0.913,0.899,0.904
NCI-H322M,0.888,0.611,0.446,0.337,0.533,0.483,0.406,0.394,0.775,0.531,0.588,0.462,0.554,0.395,0.46,0.487,1.12,1.09,0.77,0.468
HCC-366,0.547,0.179,0.105,0.0338,0.969,0.805,0.468,0.438,0.337,0.299,0.141,0.0851,0.209,0.485,0.0684,0.0719,1.03,1.02,1.02,1.01
NCI-H2085,0.865,0.693,0.471,0.328,0.787,0.448,0.349,0.245,0.615,0.452,0.419,0.378,0.968,0.969,0.749,0.353,1.23,0.988,0.893,0.808
